Assay results taken from publication PMC11721293 (JCI Insight, 2025).
“And” between values parts separate entries of the source, which are not always exact repeats. Equal entries are not always repeated. Where two headings read alike, the source gives them in different places.

Key:
SARS-CoV-2-WA [1] = format: in vivo, mouse; settings: 50 MPK oral gavage twice daily; day 2
[2] = tested on: SARS-CoV-2 BA.4.6 (Omicron); format: cell-based; settings: VeroE6, 10 μM LNF, 24 h, DMSO = 100%
[3] = tested on: SARS-CoV-2 strain USA-WA1/2020; format: in vivo, mouse
Calu3 cells = settings: Fig 1F
SARS-CoV-2-WA [4] = format: in vivo, mouse; settings: 50 MPK oral gavage twice daily
[5] = tested on: SARS-CoV-2 spike protein–mediated cell-cell fusion (Wuhan); format: cell-based; settings: 48 h
in vitro [6] = settings: human
SARS-CoV-2 [7] = format: cell-based; settings: for percentage genome copy number relative to DMSO: 48 h, replicates
SARS-CoV-2 viral entry = format: cell-based; settings: for viral entry signal relative to DMSO (sheet 4D): individual replicates, DMSO about 1
[8] = tested on: SARS-CoV-2 spike protein–mediated cell-cell fusion (B.1.315); format: cell-based; settings: B.1.315 (printed), 48 h
[9] = tested on: SARS-CoV-2 spike protein–mediated cell-cell fusion (BA.1); format: cell-based; settings: 48 h
[10] = tested on: VSV-SARS-CoV-2-S pseudovirus; experiment: microbe, parasite or virus in culture; format: cell-based; settings: for EC50: Pseudovirus
in vitro [11] = settings: human; remark: listed apart in the source
SARS-CoV-2 [12] = experiment: Virus-induced cytopathic effect (CPE) in VeroE6; format: cell-based
SARS-CoV-2 replicon = experiment: microbe, parasite or virus in culture; format: cell-based
[13] = tested on: SARS-CoV-2 spike protein–mediated cell-cell fusion (B.1.617); format: cell-based; settings: 48 h
SARS-CoV-2-nLUC = experiment: microbe, parasite or virus in culture; format: cell-based; settings: for viral inhibition (EC50 curve data): Huh7A2T2, log[Lonafarnib]; for Replication: LNF
in vitro [14] = settings: human; remark: listed apart in the source

NC(=O)N1CCC(CC(=O)N2CCC([C@H]3c4ncc(Br)cc4CCc4cc(Cl)cc(Br)c43)CC2)CC1 [LNF, lonafarnib]
lung viral titer (SARS-CoV-2-WA [1]): significantly lower viral titers in the lung
% Genome [2]: 1.73% and 1.25% and 0.58%
Clinical Score ([3]; Day 5, individual animals): 1 (3×) and 0 (7×)
composite clinical score ([3]; LNF 40 MPK IP, RDV 25 MPK SC, twice daily): much improved disease parameters
CC50 (Calu3 cells): > 30 µM
lung histopathology score vs vehicle (SARS-CoV-2-WA [4]): significantly lower histopathology score
relative luciferase signals ([5]; 0.3 (printed)): 83.8904 and 99.372 and 100.719 and 105.145
relative luciferase signals ([5]; 1 (printed)): 76.0312 and 74.8493 and 82.9658 and 76.539
relative luciferase signals ([5]; 3 (printed)): 82.9427 and 55.6651 and 51.5871 and 56.5775
relative luciferase signals ([5]; 10 (printed)): 30.6993 and 29.5083 and 34.9918 and 28.4711
CC50 (in vitro [6]): > 30 µM
reduction of viral genome copy number in infected cells (SARS-CoV-2 [7]; 10 μM, VeroE6 and Calu3): more than 90%
percentage genome copy number relative to DMSO (SARS-CoV-2 [7]; Fig 1D, 5 mM (printed)): 15.7327% and 8.267% and 4.447%
percentage genome copy number relative to DMSO (SARS-CoV-2 [7]; Fig 1D, 10 mM (printed)): 0.3388% and 0.169% and 0.1887%
percentage genome copy number relative to DMSO (SARS-CoV-2 [7]; Fig 1E, 5 mM (printed)): 1.7284% and 12.0506% and 10.6523% and 4.939%
percentage genome copy number relative to DMSO (SARS-CoV-2 [7]; Fig 1E, 10 mM (printed)): 0.1445% and 0.1282% and 0.2571% and 0.1291%
inhibition of viral entry (SARS-CoV-2 viral entry): inhibited viral entry
viral entry signal relative to DMSO (sheet 4D) (SARS-CoV-2 viral entry; TA6 cells): 0.282 and 0.3105 and 0.4405 and 0.3405 and 0.2054 and 0.2625 and 0.3109 and 0.2607 and 0.1876
viral entry signal relative to DMSO (sheet 4D) (SARS-CoV-2 viral entry; VeroE6 cells): 0.1605 and 0.1408 and 0.1008 and 0.1281 and 0.213 and 0.1543 and 0.08537 and 0.09496 and 0.1294
relative luciferase signals ([8]; Conc-mM 0.3 (printed)): 107.391 and 104.235 and 80.412 and 106.736
relative luciferase signals ([8]; Conc-mM 1 (printed)): 99.0641 and 83.1761 and 82.6205 and 92.2492
relative luciferase signals ([8]; Conc-mM 3 (printed)): 65.2189 and 57.2378 and 55.5623 and 61.7046
relative luciferase signals ([8]; Conc-mM 10 (printed)): 36.5792 and 34.1792 and 24.08 and 33.4344
relative luciferase signals ([9]; 0.3 (printed)): 93.9702 and 58.6533 and 53.4918 and 75.0181
relative luciferase signals ([9]; 1 (printed)): 108.194 and 73.2387 and 73.7551 and 89.5366
Max % [10]: 100.0%
EC50 ([10]; Calu-3, 24 h, 24 h, read-out: EC50): 3.17 µM
EC50 ([10]; Huh-7, 24 h, 24 h, read-out: EC50): 4.16 µM
EC50 ([10]; Huh-7, read-out: EC50): 4.2 µM
EC50 ([10]; read-out: EC50 values, range over cell lines): 1.5 to 4.16 µM
EC50 ([10]; read-out: EC50): 3.3 µM
CC50 (in vitro [11]): > 30 µM
effect on virus-induced CPE (SARS-CoV-2 [12]): rescued the infected cells from virus-induced CPE
EC50 (SARS-CoV-2 replicon): 7.8 µM
Inhibition (SARS-CoV-2 replicon): 99.8867
Inhibition (SARS-CoV-2 replicon; Log[LNF} mM 1): 58.6507 and 68.927 and 62.2766 and 74.1393
EC50 (SARS-CoV-2 replicon; Severe acute respiratory syndrome coronavirus 2, Huh7.5, 24 h): 7.88 µM
relative luciferase signals ([13]; Conc-mM 0.3 (printed)): 89.139 and 98.5081 and 88.3035 and 100.955
relative luciferase signals ([13]; Conc-mM 1 (printed)): 86.0359 and 78.2183 and 102.626 and 94.5695
relative luciferase signals ([13]; Conc-mM 3 (printed)): 65.1493 and 69.6847 and 66.5219 and 76.0103
relative luciferase signals ([13]; Conc-mM 10 (printed)): 35.8018 and 38.2651 and 35.7143 and 29.2527
selectivity index (SI = CC50/EC50) (SARS-CoV-2-nLUC): greater than 10
viral inhibition (EC50 curve data) (SARS-CoV-2-nLUC; μM 0.39794, 24 h): 31.0378 and 31.6733 and 41.1788 and 40.0144
viral inhibition (EC50 curve data) (SARS-CoV-2-nLUC; μM 1, 24 h): 85.1292 and 83.5424 and 87.1345 and 86.5675
Replication (SARS-CoV-2-nLUC; Log[LNF} mM 0.09691): 60.948 and 56.887 and 64.8083
Replication (SARS-CoV-2-nLUC; Log[LNF} mM 0.39794): 44.056 and 34.731 and 47.009
Replication (SARS-CoV-2-nLUC; Log[LNF} mM 1): 12.4102 and 12.97 and 12.6676
Replication (SARS-CoV-2-nLUC; Log[LNF} mM -0.522879): 64.2793 and 76.4681 and 101.013
EC50 (SARS-CoV-2-nLUC; Severe acute respiratory syndrome coronavirus 2, 24 h, Huh7.5A2T2, 24 h, Fig 1G, read-out: EC50): 3.46 µM
EC50 (SARS-CoV-2-nLUC; Severe acute respiratory syndrome coronavirus 2, 24 h, VeroE6T2, 24 h, Fig 1G, read-out: EC50): 2.24 µM
EC50 (SARS-CoV-2-nLUC; Severe acute respiratory syndrome coronavirus 2, Calu-3, 24 h, Calu3, 24 h, Fig 1G, read-out: EC50): 3.11 µM
EC50 (SARS-CoV-2-nLUC; Severe acute respiratory syndrome coronavirus 2, Vero C1008, 24 h, VeroE6, 24 h, Fig 1G, Fig 5B, read-out: EC50): 2.03 µM
EC50 (SARS-CoV-2-nLUC; Severe acute respiratory syndrome coronavirus 2, VeroE6, Huh7.5A2T2, VeroE6T2, Calu3, read-out: EC50 values, range over cell lines): 2.03 to 3.46 µM
EC50 (SARS-CoV-2-nLUC; VeroE6, 24 h, Fig 1G, Fig 5B, read-out: EC50): 2 µM
CC50 (in vitro [14]): > 30 µM
